Tests used:
[1] = Cytotoxicity test with CellTiter Glo; format: cell-based; details: human, HepG2.2.15 cells, highest concentration 150 μM, read-out: CC50 values of the compounds of the invention
Method: Test 2: Cytotoxicity and Selectivity Index
Methods of Testing Cytotoxicity and Selectivity Index
The serial diluted compound was added to a 384 wells plate at 50 μL HepG2.2.15 cell per well (3000 cells per well), the highest final concentration in the experiment is 150 μM (200 fold dilution). The plate was cultured at 37° C. in an incubator with CO2 for 4 days, and cytotoxicity of the compound was detected using CellTiter Glo agent.
The cytotoxicity of the compound was calculated using the following formulate, cytotoxicity (%)=100−(detection value/mean of DMSO control wells values×100) CC50 values were calculated by a four parametric nonlinear regression model using Graphpad Prism 5 software to manage concentration−cytotoxicity (%).

[2] = system: HBV; experiment: Test of anti HBV activity in vitro (viral DNA by qPCR); format: cell-based; details: Hepatitis B virus; HepG2.2.15 cells, viral DNA in cell culture supernatant by qPCR; read-out: EC50 values of the compound of the invention on viral replication
Method in brief: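 HepG2.2.15 cells (integrated HBV genome) were grown to confluence, then treated with compound in 4-fold dilutions from 4 μM final (0.5% DMSO). Secreted viral DNA in supernatant was quantified by SYBR qPCR against an HBV plasmid standard curve; EC50 from four-parameter nonlinear regression of concentration versus copy number.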

Structure (SMILES) | CC50 at 4 days [1] [nM] | EC50 [2] [nM]
COC(=O)C1=C(CN2CCN3C(=O)N(c4ccc(-c5nc(C6CC6)c[nH]5)cc4)C[C@@H]3C2)NC(c2nccs2)=N[C@H]1c1ccc(F)cc1Cl [Example 111, (R)-methyl 4-(2-chloro-4-fluorophenyl)-6-(((S)-2-(4-(4-cyclopropyl-1H-imidazol-2-yl)phenyl)-3-oxohexahydroimidazo[1,5-a]pyrazin-7(1H)-yl)methyl)-2-(thiazol-2-yl)-1,4-dihydropyrimidine-5-carboxylate] | > 150000 | 7.5
COC(=O)C1=C(CN2CCN3C(=O)N(CC#Cc4ccc(S(C)(=O)=O)cc4)C[C@@H]3C2)NC(c2nccs2)=N[C@H]1c1ccc(F)cc1Cl [Example 41, (R)-methyl 4-(2-chloro-4-fluorophenyl)-6-(((S)-2-(3-(4-(methylsulfonyl)phenyl)-2-propyn-1-yl)-3-oxohexahydroimidazo[1,5-a]pyrazin-7(1H)-yl)methyl)-2-(thiazol-2-yl)-1,4-dihydropyrimidine-5-carboxylate] | > 150000 | 5.1
COC(=O)C1=C(CN2CCN3C(=O)N(c4ccc(Oc5cc(F)cc(C(=O)O)c5)cn4)C[C@@H]3C2)NC(c2nccs2)=N[C@H]1c1ccc(F)cc1Cl [Example 79, 3-((6-((S)-7-(((R)-6-(2-chloro-4-fluorophenyl)-5-(methoxycarbonyl)-2-(thiazol-2-yl)-3,6-dihydropyrimidin-4-yl)methyl)-3-oxohexahydroimidazo[1,5-a]pyrazin-2(3H)-yl)pyridin-3-yl)oxy)-5-fluorobenzoic acid] | > 150000 | 29
COC(=O)C1=C(CN2CCN3C(=O)N(CC#Cc4ccc(S(=O)(=O)N(C)C)cc4)C[C@@H]3C2)NC(c2nccs2)=N[C@H]1c1ccc(F)cc1Cl [Example 43, (R)-methyl 4-(2-chloro-4-fluorophenyl)-6-(((S)-2-(3-(4-(N,N-dimethylaminosulfonyl)phenyl)prop-2-yn-1-yl)-3-oxohexahydroimidazo[1,5-a]pyrazin-7(1H)-yl)methyl)-2-(thiazol-2-yl)-1,4-dihydropyrimidine-5-carboxylate] | > 150000 | 7.2
COC(=O)C1=C(CN2CCN3C(=O)N(c4ccc(Oc5ccc(CO)cc5)cc4)C[C@@H]3C2)NC(c2nccs2)=N[C@H]1c1ccc(F)cc1Cl [Example 99, (R)-methyl 4-(2-chloro-4-fluorophenyl)-6-(((S)-2-(4-(4-(hydroxymethyl)phenoxy)phenyl)-3-oxohexahydroimidazo[1,5-a]pyrazin-7(1H)-yl)methyl)-2-(thiazol-2-yl)-1,4-dihydropyrimidine-5-carboxylate] | > 150000 | 12.6
COC(=O)C1=C(CN2CCN3C(=O)N(c4ccc(-c5ccc(C(=O)O)cc5F)c(F)c4)C[C@@H]3C2)NC(c2nccs2)=N[C@H]1c1ccc(F)cc1Cl [Example 33, 4′-((S)-7-(((R)-6-(2-chloro-4-fluorophenyl)-5-(methoxycarbonyl)-2-(thiazol-2-yl)-3,6-dihydropyrimidin-4-yl)methyl)-3-oxohexahydroimidazo[1,5-a]pyrazin-2(3H)-yl)-2,2′-difluoro-[1,1′-diphenyl]-4-carboxylic acid] | > 150000 | 7
COC(=O)C1=C(CN2CCN3C(=O)N(c4ccc(N5CCO[C@H](CCC(=O)O)C5)cc4)C[C@@H]3C2)NC(c2nccs2)=N[C@H]1c1ccc(F)cc1Cl [Example 20, 3-((R)-4-(4-((S)-7-(((R)-6-(2-chloro-4-fluorophenyl)-5-(methoxycarbonyl)-2-(thiazol-2-yl)-3,6-dihydropyrimidin-4-yl)methyl)-3-oxohexahydroimidazo[1,5-a]pyrazin-2(3H)-yl)phenyl)morpholin-2-yl)propionic acid] | > 150000 | 4
COC(=O)C1=C(CN2CCN3C(=O)N(c4ccc(Sc5ccc(C#N)cc5)cc4)C[C@@H]3C2)NC(c2nccs2)=N[C@H]1c1ccc(F)cc1Cl [Example 98, (R)-methyl 4-(2-chloro-4-fluorophenyl)-6-(((S)-2-(4-((4-cyanophenyl)thio)phenyl)-3-oxohexahydroimidazo[1,5-a]pyrazin-7(1H)-yl)methyl)-2-me (thiazol-2-yl)-1,4-dihydropyrimidine-5-carboxylate] | > 150000 | 11.9
COC(=O)C1=C(CN2CCN3C(=O)N(c4ccc(N5CCOC(C(=O)O)C5)cc4)C[C@@H]3C2)NC(c2nccs2)=N[C@H]1c1ccc(F)cc1Cl (stereo partly drawn) [Example 77, 4-(4-((S)-7-(((R)-6-(2-chloro-4-fluorophenyl)-5-(methoxycarbonyl)-2-(thiazol-2-yl)-3,6-dihydropyrimidin-4-yl)methyl)-3-oxohexahydroimidazo[1,5-a]pyrazin-2(3H)-yl)phenyl)morpholine-2-carboxylic acid] | > 150000 | 9.7
COC(=O)C1=C(CN2CCN3C(=O)N(c4ccc(N5CCC(C(=O)O)CC5)cc4F)C[C@@H]3C2)NC(c2nccs2)=N[C@H]1c1ccc(F)cc1Cl [Example 31, 1-(4-((S)-7-(((R)-6-(2-chloro-4-fluorophenyl)-5-(methoxycarbonyl)-2-(thiazol-2-yl)-3,6-dihydropyrimidin-4-yl)methyl)-3-oxohexahydroimidazo[1,5-a]pyrazin-2(3H)-yl)-3-fluorophenyl)piperidine-4-carboxylic acid] | > 150000 | 16
COC(=O)C1=C(CN2CCN3C(=O)N(c4cc(F)cc(-c5ccc(C(=O)O)c(F)c5)c4)C[C@@H]3C2)NC(c2nccs2)=N[C@H]1c1ccc(F)cc1Cl [Example 119] | > 150000 | 15.6
COC(=O)C1=C(CN2CCN3C(=O)N(c4nc(-c5ccc(CC(C)(C)C(=O)O)cc5)cs4)C[C@@H]3C2)NC(c2nccs2)=N[C@H]1c1ccc(F)cc1Cl [Example 36, 3-(4-(2-((S)-7-(((R)-6-(2-chloro-4-fluorophenyl)-5-(methoxycarbonyl)-2-(thiazol-2-yl)-3,6-dihydropyrimidin-4-yl)methyl)-3-oxohexahydroimidazo[1,5-a]pyrazin-2(3H)-yl)thiazol-4-yl)phenyl)-2,2-dimethylprop ionic acid] | > 150000 | 22
COC(=O)C1=C(CN2CCN3C(=O)N(CC#Cc4ccc(C(C)(C)O)cc4)C[C@@H]3C2)NC(c2nccs2)=N[C@H]1c1ccc(F)cc1Cl [Example 38, (R)-methyl 4-(2-chloro-4-fluorophenyl)-6-(((S)-2-(3-(4-(2-hydroxyprop-2-yl)phenyl)-2-propyn-1-yl)-3-oxohexahydroimidazo[1,5-a]pyrazin-7(1H)-yl)methyl)-2-(thiazol-2-yl)-1,4-dihydropyrimidine-5-carboxylate] | > 150000 | 7.1
COC(=O)C1=C(CN2CCN3C(=O)N(c4ccc(F)c(-c5ccc(C(=O)O)cc5)c4)C[C@@H]3C2)NC(c2nccs2)=N[C@H]1c1ccc(F)cc1Cl [Example 114, 5′-((S)-7-(((R)-6-(2-chloro-4-fluorophenyl)-5-(methoxycarbonyl)-2-(thiazol-2-yl)-3,6-dihydropyrimidin-4-yl)methyl)-3-oxohexahydroimidazo[1,5-a]pyrazin-2(3H)-yl)-2′-fluoro-[1,1′-biphenyl]-4-carboxylic acid] | > 150000 | 27.7

Source: US11142527B2, “Dihydropyrimidine compounds and uses thereof in medicine” (SUNSHINE LAKE PHARMA CO., LTD., priority 2017, dated 2021)
